# Measured values: PMC3062741 (Behavioural brain research, 2011)
# Test system: Male Sprague-Dawley rats
# Test: Locomotor activity
# Format: in vivo, rat
# Details: for Locomotor Activity Day 1, mean distance traveled: 60-min session
compound,measurement,setting,value
"COC(=O)C(c1ccccc1)C1CCCCN1 (stereo not drawn) [MPD, Methylphenidate]",time course of locomotor activity compared to saline-treated rats,"Day 1, EC rats, MPD 3 mg/kg",significantly greater during the 25–60-min intervals
same,time course of locomotor activity compared to saline-treated rats,"Day 1, EC rats, MPD 10 mg/kg",significantly greater during the 20–60-min intervals
same,time course of locomotor activity compared to saline-treated rats,"Day 1, IC rats, MPD 3 mg/kg","significantly greater during the 30-, 50- and 60-min intervals"
same,time course of locomotor activity compared to saline-treated rats,"Day 1, IC rats, MPD 10 mg/kg",significantly greater during the 15–60-min intervals
same,time course of locomotor activity compared to saline-treated rats,"Day 1, SC rats, MPD 3 mg/kg",more active than saline-treated SC rats during the 30–60-min time intervals
same,time course of locomotor activity compared to saline-treated rats,"Day 1, SC rats, MPD 10 mg/kg",more active than saline-treated SC rats during the 15–60-min time intervals
same,time course of locomotor activity compared to saline-treated rats,"Day 10, EC rats, MPD 3 mg/kg",only IC rats treated with 3 mg/kg of MPD displayed greater activity
same,time course of locomotor activity compared to saline-treated rats,"Day 10, EC rats, MPD 10 mg/kg",more active than the saline controls during each time interval
same,time course of locomotor activity compared to saline-treated rats,"Day 10, IC rats, MPD 3 mg/kg",significantly greater activity in IC rats relative to saline controls beginning at the 30-min time interval
same,time course of locomotor activity compared to saline-treated rats,"Day 10, IC rats, MPD 10 mg/kg",more active than the saline controls during each time interval except the 5-min interval in the IC group
same,time course of locomotor activity compared to saline-treated rats,"Day 10, SC rats, MPD 3 mg/kg",more active than saline-treated SC rats during the 10–60-min time intervals
same,time course of locomotor activity compared to saline-treated rats,"Day 10, SC rats, MPD 10 mg/kg",more active than saline-treated SC rats during the 10–60-min time intervals
same,total locomotor activity across Days 1–10 compared with Day 1,"EC rats, MPD 3 mg/kg once daily",greater locomotor activity on Day 2 than on Day 1
same,"Locomotor Activity Day 10, mean distance traveled","EC rats, MPD 3 mg/kg s.c. once daily",4438 cm
same,"Locomotor Activity Day 1, mean distance traveled","EC rats, MPD 3 mg/kg s.c.",9482 cm
same,total locomotor activity across Days 1–10 compared with Day 1,"EC rats, MPD 10 mg/kg once daily","greater locomotor activity on Days 4, 5 and 10 than on Day 1"
same,"Locomotor Activity Day 10, mean distance traveled","EC rats, MPD 10 mg/kg s.c. once daily",29196 cm
same,"Locomotor Activity Day 1, mean distance traveled","EC rats, MPD 10 mg/kg s.c.",15665 cm
same,total locomotor activity across Days 1–10 compared with Day 1,"IC rats, MPD 3 mg/kg once daily",greater locomotor activity on Days 2–9 than on Day 1
same,"Locomotor Activity Day 10, mean distance traveled","IC rats, MPD 3 mg/kg s.c. once daily",13980 cm
same,"Locomotor Activity Day 1, mean distance traveled","IC rats, MPD 3 mg/kg s.c.",9775 cm
same,total locomotor activity across Days 1–10 compared with Day 1,"IC rats, MPD 10 mg/kg once daily",no significant main effect of Day
same,"Locomotor Activity Day 10, mean distance traveled","IC rats, MPD 10 mg/kg s.c. once daily",28531 cm
same,"Locomotor Activity Day 1, mean distance traveled","IC rats, MPD 10 mg/kg s.c.",20653 cm
same,total locomotor activity across Days 1–10 compared with Day 1,"SC rats, MPD 3 mg/kg once daily",activity on Days 2–10 was greater than activity on Day 1
same,"Locomotor Activity Day 10, mean distance traveled","SC rats, MPD 3 mg/kg s.c. once daily",23675 cm
same,"Locomotor Activity Day 1, mean distance traveled","SC rats, MPD 3 mg/kg s.c.",15020 cm
same,total locomotor activity across Days 1–10 compared with Day 1,"SC rats, MPD 10 mg/kg once daily","locomotor activity on Days 3, 5–7 and 10 was greater than that on Day 1"
same,"Locomotor Activity Day 10, mean distance traveled","SC rats, MPD 10 mg/kg s.c. once daily",31954 cm
same,"Locomotor Activity Day 1, mean distance traveled","SC rats, MPD 10 mg/kg s.c.",22406 cm
